The values below come from US8124629B2, “Naphthylacetic acids” (Hoffmann-La Roche Inc., priority 2008, dated 2012).

The target of experiment [1] is T1, human CRTH2 (Homo sapiens, UniProt Q9Y5Y4).
T1 sequence (Q9Y5Y4 1-395): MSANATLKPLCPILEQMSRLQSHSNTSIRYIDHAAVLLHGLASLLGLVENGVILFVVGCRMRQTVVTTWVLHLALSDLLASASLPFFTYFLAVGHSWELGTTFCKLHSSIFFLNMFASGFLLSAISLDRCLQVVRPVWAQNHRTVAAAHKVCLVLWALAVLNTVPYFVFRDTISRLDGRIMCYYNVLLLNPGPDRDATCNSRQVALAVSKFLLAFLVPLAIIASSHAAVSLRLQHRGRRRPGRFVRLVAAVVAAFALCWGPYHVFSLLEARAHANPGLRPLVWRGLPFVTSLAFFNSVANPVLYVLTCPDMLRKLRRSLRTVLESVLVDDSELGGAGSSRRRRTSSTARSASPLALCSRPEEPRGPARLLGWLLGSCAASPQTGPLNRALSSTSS
Briefly: Calcium Flux Assay Using Fluorometric Imaging Plate Reader (FLIPR). Type of experiment: cell-based. Details: expressed in transfected cells; host or cells: CHO-K1 (previously transfected with G-alpha 16). The following applies: CHO-K1 cells with G-alpha 16 and human CRTH2; inhibition of ligand (DK-PGD2) induced Ca2+ flux; read-out: FLIPR assay IC50 (exceptions, greater than 3). As to the method:
CHO-K1 cells previously transfected with G-alpha 16 were subsequently transfected with the human CRTH2 receptor and the neomycin resistance gene. Following selection in 800 μg/mL G418 (geneticin), individual clones were assayed for their receptor expression based on staining with an anti human CRTH2 IgG, followed by assaying for their response to 13,14-dihydro-15-keto Prostaglandin D2 (DK-PDG2) (ligand) in the Ca^2+Flux assay. Positive clones were then cloned by limiting dilution cloning. The transfected cells were cultured in Ham's F-12 medium supplemented with 10% fetal bovine serum, 2 mM glutamine , 100 U/mL penicillin/100 μg/mL streptomycin, 200 μg/mL hygromycin B, and 800 μg/mL G418 (geneticin). Cells were harvested with trypsin-EDTA (trypsin-ethylenediaminetetraacetic acid) and counted using ViaCount® reagent (from Guava Technologies, Inc. which contains two DNA-binding dyes that enable the reagent user to distinguish between viable and non-viable cells). The cell suspension volume was adjusted to 2.5×10^5 cells /mL with complete growth media. Aliquots of 50 μL were dispensed into BD Falcon™ 384 well black/clear microplates (from BD Biosciences, a division of Becton, Dickinson and Company) and the microplates were placed in a 37° C. CO2 incubator overnight. The following day, the microplates were used in the assay.
Loading Buffer containing dye (from the FLIPR® Calcium 3 Assay Kit from Molecular Devices, a division of MDS Analytical Technologies and MDS Inc.) was prepared by dissolving the contents of one bottle into 200 mL Hank's Balanced Salt Solution containing 20 mM HEPES (4-(2-hydroxyethyl)-1-piperazineethanesulfonic acid) and 2.5 mM probenecid. Growth media was removed from the cell plates and 25 μL of Hank's Balanced Salt Solution (HBSS) containing 20 mM HEPES, 0.05% BSA and 2.5 mM probenecid was added to each well followed by 25 μL of diluted dye using a Multidrop dispenser. The plates were then incubated for 1 hour at 37° C.
During the incubation, test compound plates were prepared by adding 90 μL of HBSS/20 mM HEPES/0.005% BSA buffer to the 2 μL of serial diluted compounds. To prepare serial diluted compounds, 20 mM stocks of compounds were dissolved in 100% DMSO. The compound dilution plate was set up as follows: well #1 received 5 μL of compound plus 10 μL of DMSO. Wells 2-10 received 10 μL of DMSO. 5 μL was mixed and transferred from well #1 into well #2. 1:3 serial dilutions were continued out 10 steps. 2 μL of diluted compound was transferred into duplicate wells of a 384 well “assay plate” and then 90 μL of buffer was added.
After incubation, both the cell and “assay plate” plates were brought to the fluorometric imaging plate reader (FLIPR®) and 20 μL of the diluted compounds were transferred to the cell plates by the FLIPR®. Plates were then incubated for 1 hour at room temperature. After the 1 hour incubation, plates were returned to the FLIPR® and 20 μL of 4.5× concentrated ligand was added to the cell plates. During the assay, fluorescence readings were taken simultaneously from all 384 wells of the cell plate every 1.5 seconds. Five readings were taken to establish a stable baseline, then 20 μL of sample was rapidly (30 μL/sec) and simultaneously added to each well of the cell plate. The fluorescence was continuously monitored before, during and after sample addition for a total elapsed time of 100 seconds. Responses (increase in peak fluorescence) in each well following agonist addition were determined. The initial fluorescence reading from each well, prior to ligand stimulation, was used as a zero baseline value for the data from that well. The responses were expressed as % inhibition of the buffer control. […]

Experiment [2] addresses T1, human CRTH2. As to the kind of experiment: Human CRTH2 Receptor Binding Assay (whole cell, [3H]ramatroban). Details: expressed in transfected cells; host or cells: CHO-K1. The note with it: CHO-K1 cells expressing human CRTH2 and G-alpha16; 20 nM [3H]ramatroban; 1 hour, room temperature. The gist of the method: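 CHO-K1 cells stably co-expressing human CRTH2 and G-alpha16, 1.5×10^5 cells/reaction, bound 1 h at room temperature with 20 nM [3H]ramatroban in PBS, 10 mM MgCl2, 0.06% BSA. Filter-bound radioactivity counted; non-specific binding defined with 10 μM 15(R)-15-methyl PGD2. IC50 from 4-parameter fit of 7-concentration inhibition data.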

In the case of `CS(=O)(=O)c1cccc(C(=O)c2cc(CC(=O)O)cc3ccccc23)c1` [Example 2-11, [4-(3-Methanesulfonyl-benzoyl)-naphthalen-2-yl]-acetic acid], the results for the half-maximal inhibitory concentration (IC50) on human CRTH2 [1] and on human CRTH2 [2] were over 3000 nM and 135 nM, respectively.

As for `CS(=O)(=O)c1cccc(C(=O)c2cc(CC(=O)O)cc3cc4c(cc23)OCO4)c1` [Example 2-12, [8-(3-Methanesulfonyl-benzoyl)-naphtho[2,3-d][1,3]dioxol-6-yl]-acetic acid], the concentration for half-maximal inhibition (IC50) is over 3000 nM on human CRTH2 [1] and 152 nM on human CRTH2 [2].

As to `CS(=O)(=O)c1ccc(C(=O)c2cc(CC(=O)O)cc3cc4c(cc23)OCO4)cc1` [Example 2-7, [8-(4-Methanesulfonyl-benzoyl)-naphtho[2,3-d][1,3]dioxol-6-yl]-acetic acid], the half-maximal inhibitory concentration (IC50) was over 3000 nM on human CRTH2 [1] and 264 nM at human CRTH2 [2].

For `NS(=O)(=O)c1ccc(C(=O)c2cc(CC(=O)O)cc3ccccc23)cc1` [Example 1-3, [4-(4-Sulfamoyl-benzoyl)-naphthalen-2-yl]-acetic acid], the half-inhibitory concentration (IC50) on human CRTH2 [1] was over 3000 nM; on human CRTH2 [2] it was 336 nM.

Take `CS(=O)(=O)c1cccc(C(=O)c2cc(CC(=O)O)cc3ccc(Cl)cc23)c1` [Example 2-30, [6-Chloro-4-(3-methanesulfonyl-benzoyl)-naphthalen-2-yl]-acetic acid]: the figures for the half-inhibitory concentration (IC50) at human CRTH2 [1] and on human CRTH2 [2] were over 3000 nM and 82.5 nM, respectively.

`CC(C(=O)O)c1cc(C(=O)c2ccc(S(C)(=O)=O)cc2)c2cc(F)ccc2c1` (stereo not shown) [Example 7-1, 2-[6-Fluoro-4-(4-methanesulfonyl-benzoyl)-naphthalen-2-yl]-propionic acid]: the IC50 was over 3000 nM on human CRTH2 [1] and 53.3 nM at human CRTH2 [2].

In the case of `NS(=O)(=O)c1ccc(C(=O)c2cc(CC(=O)O)cc3ccc(F)cc23)cc1` [Example 1-2, [6-Fluoro-4-(4-sulfamoyl-benzoyl)-naphthalen-2-yl]-acetic acid], the IC50 is over 3000 nM at human CRTH2 [1] and 40.2 nM on human CRTH2 [2].

As to `COc1ccc2c(C(=O)c3ccc(S(C)(=O)=O)cc3)cc(CC(=O)O)cc2c1` [Example 2-9, [4-(4-Methanesulfonyl-benzoyl)-7-methoxy-naphthalen-2-yl]-acetic acid], the results for the IC50 on human CRTH2 [1] and on human CRTH2 [2] were over 3000 nM and 199 nM, respectively.
